For the test, the target named is T1, Estrogen receptor (Homo sapiens, UniProt P03372).
T1 sequence (P03372 whole entry): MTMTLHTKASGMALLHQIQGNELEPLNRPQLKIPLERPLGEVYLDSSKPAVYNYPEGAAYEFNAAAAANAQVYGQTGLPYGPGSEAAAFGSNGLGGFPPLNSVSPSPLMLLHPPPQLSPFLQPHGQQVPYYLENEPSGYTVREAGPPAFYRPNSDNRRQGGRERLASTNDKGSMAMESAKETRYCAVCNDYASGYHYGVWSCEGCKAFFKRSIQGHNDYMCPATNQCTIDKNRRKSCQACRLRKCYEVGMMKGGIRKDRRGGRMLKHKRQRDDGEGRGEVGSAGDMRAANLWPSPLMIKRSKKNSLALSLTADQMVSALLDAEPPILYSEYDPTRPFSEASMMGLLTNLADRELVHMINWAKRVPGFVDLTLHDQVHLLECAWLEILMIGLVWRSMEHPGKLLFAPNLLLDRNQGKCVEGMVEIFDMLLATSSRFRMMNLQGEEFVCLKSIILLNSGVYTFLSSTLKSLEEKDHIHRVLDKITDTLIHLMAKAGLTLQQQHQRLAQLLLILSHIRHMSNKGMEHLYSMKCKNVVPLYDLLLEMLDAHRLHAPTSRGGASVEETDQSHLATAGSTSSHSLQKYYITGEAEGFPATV

This passage reports Ki results from ChEMBL document CHEMBL1139896, “Synthesis, characterization, and estrogen receptor binding affinity of flavone-, indole-, and furan-estradiol conjugates” (Bioorg Med Chem Lett, 2007).

What is called Ki is the dissociation constant of the complex between target and ligand, obtained from inhibition or displacement. The low end stands for tighter binding, the high end for weaker binding.

Description: Binding affinity to ERalpha

`C[C@]12CC[C@@H]3c4ccc(O)cc4CC[C@H]3[C@@H]1CC[C@@]2(O)C#CCCCCC#Cc1c(-c2ccccc2)oc2ccccc2c1=O` gave a Ki of 63100 nM. In turn, `C[C@]12CC[C@@H]3c4ccc(O)cc4CC[C@H]3[C@@H]1CC[C@@]2(O)C#CCCCCC#Cc1cccc2c(=O)cc(-c3ccccc3)oc12` showed a Ki of 382 nM.

In turn, `C[C@]12CC[C@@H]3c4ccc(O)cc4CC[C@H]3[C@@H]1CC[C@@]2(O)C#Cc1c(-c2ccccc2)oc2ccccc2c1=O` had a Ki of 37 nM. Then `COc1ccccc1-c1[nH]c2ccccc2c1C#C[C@]1(O)CC[C@H]2[C@@H]3CCc4cc(O)ccc4[C@H]3CC[C@@]21C`, with 35 nM; and `Cc1ccc(S(=O)(=O)Oc2ccc3c(C#C[C@]4(O)CC[C@H]5[C@@H]6CCc7cc(O)ccc7[C@H]6CC[C@@]54C)c(-c4ccc(OCc5ccccc5)cc4)oc3c2)cc1`, with 332 nM. The compound `C[C@]12CC[C@@H]3c4ccc(O)cc4CC[C@H]3[C@@H]1CC[C@@]2(O)C#Cc1c(-c2ccccc2O)[nH]c2ccccc12` showed a Ki of 75 nM. `Cc1ccc(S(=O)(=O)Oc2ccc3c(C#CCCCCC#C[C@]4(O)CC[C@H]5[C@@H]6CCc7cc(O)ccc7[C@H]6CC[C@@]54C)c(-c4ccc(OCc5ccccc5)cc4)oc3c2)cc1` had a Ki of 17900 nM. Then `C[C@]12CC[C@@H]3c4ccc(O)cc4CC[C@H]3[C@@H]1CC[C@@]2(O)C#Cc1cccc2c(=O)cc(-c3ccccc3)oc12`, with 100 nM.
